Experiments:
Experiment in all cases: relative viability (nuclei count vs DMSO), 5 days (fraction); higher = more cells survive
NCI-H460 = system: NCI-H460
Method in brief: (§1)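 Five library-drug doses in √10 steps were combined with a fixed anchor-drug dose, or a single drug was given alone, by pin tool to lung cancer cell lines in 1536-well plates the day after seeding. Nuclei were stained and counted after 5 days. Relative viability is the nuclei count in treated wells over that in vehicle wells, taken as the median of duplicate plates.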

LXF-289 = system: LXF-289
Method in brief: as §1

PC-14 = system: PC-14
Method in brief: as §1

NCI-H2009 = system: NCI-H2009
Method in brief: as §1

NCI-H2023 = system: NCI-H2023
Method in brief: as §1

HARA = system: HARA
Method in brief: as §1

NCI-H1915 = system: NCI-H1915
Method in brief: as §1

A-427 = system: A-427
Method in brief: as §1

NCI-H3122 = system: NCI-H3122
Method in brief: as §1

UMC-11 = system: UMC-11
Method in brief: as §1

HCC-366 = system: HCC-366
Method in brief: as §1

SK-LU-1 = system: SK-LU-1
Method in brief: as §1

NCI-H1755 = system: NCI-H1755
Method in brief: as §1

H3255 = system: H3255
Method in brief: as §1

PC-3 [JPC-3] = system: PC-3 [JPC-3]
Method in brief: as §1

NCI-H1975 = system: NCI-H1975
Method in brief: as §1

NCI-H1437 = system: NCI-H1437
Method in brief: as §1

NCI-H650 = system: NCI-H650
Method in brief: as §1

NCI-H1793 = system: NCI-H1793
Method in brief: as §1

NCI-H596 = system: NCI-H596
Method in brief: as §1

HCC-15 = system: HCC-15
Method in brief: as §1

NCI-H441 = system: NCI-H441
Method in brief: as §1

NCI-H2405 = system: NCI-H2405
Method in brief: as §1

CCCCCCCCCCCC1=C(O)C(=O)C=C(O)C1=O [Embelin] + CC(=O)Nc1cccc(-n2c(=O)n(C3CC3)c(=O)c3c(Nc4ccc(I)cc4F)n(C)c(=O)c(C)c32)c1 [Trametinib] (partner 0.02 µM)
relative viability (NCI-H460; first compound 0.08 µM): 0.173
relative viability (NCI-H460; first compound 0.8 µM): 0.202
relative viability (NCI-H460; first compound 2.53 µM): 0.151
relative viability (NCI-H460; first compound 8 µM): 0.112
relative viability (LXF-289; first compound 0.08 µM): 0.715
relative viability (LXF-289; first compound 0.8 µM): 0.737
relative viability (LXF-289; first compound 2.53 µM): 0.722
relative viability (LXF-289; first compound 8 µM): 0.676
relative viability (PC-14; first compound 0.08 µM): 0.728
relative viability (PC-14; first compound 0.8 µM): 0.839
relative viability (PC-14; first compound 2.53 µM): 0.982
relative viability (PC-14; first compound 8 µM): 0.724
relative viability (NCI-H2009; first compound 0.08 µM): 0.335
relative viability (NCI-H2009; first compound 0.8 µM): 0.306
relative viability (NCI-H2009; first compound 2.53 µM): 0.268
relative viability (NCI-H2009; first compound 8 µM): 0.296
relative viability (NCI-H2023; first compound 0.08 µM): 0.568
relative viability (NCI-H2023; first compound 0.8 µM): 0.654
relative viability (NCI-H2023; first compound 2.53 µM): 0.613
relative viability (NCI-H2023; first compound 8 µM): 0.495
relative viability (HARA; first compound 0.08 µM): 0.785
relative viability (HARA; first compound 0.8 µM): 1.05
relative viability (HARA; first compound 2.53 µM): 0.637
relative viability (HARA; first compound 8 µM): 0.536
relative viability (NCI-H1915; first compound 0.08 µM): 0.319
relative viability (NCI-H1915; first compound 0.8 µM): 0.33
relative viability (NCI-H1915; first compound 2.53 µM): 0.263
relative viability (NCI-H1915; first compound 8 µM): 0.295
relative viability (A-427; first compound 0.08 µM): 0.732
relative viability (A-427; first compound 0.8 µM): 0.785
relative viability (A-427; first compound 2.53 µM): 0.7
relative viability (A-427; first compound 8 µM): 0.624
relative viability (NCI-H3122; first compound 0.08 µM): 0.251
relative viability (NCI-H3122; first compound 0.8 µM): 0.253
relative viability (NCI-H3122; first compound 2.53 µM): 0.238
relative viability (NCI-H3122; first compound 8 µM): 0.263
relative viability (UMC-11; first compound 0.08 µM): 0.698
relative viability (UMC-11; first compound 0.8 µM): 0.869
relative viability (UMC-11; first compound 2.53 µM): 0.758
relative viability (UMC-11; first compound 8 µM): 0.593
relative viability (HCC-366; first compound 0.08 µM): 0.385
relative viability (HCC-366; first compound 0.8 µM): 0.431
relative viability (HCC-366; first compound 2.53 µM): 0.446
relative viability (HCC-366; first compound 8 µM): 0.326
relative viability (SK-LU-1; first compound 0.08 µM): 0.505
relative viability (SK-LU-1; first compound 0.8 µM): 0.542
relative viability (SK-LU-1; first compound 2.53 µM): 0.691
relative viability (SK-LU-1; first compound 8 µM): 0.39
relative viability (NCI-H1755; first compound 0.08 µM): 0.816
relative viability (NCI-H1755; first compound 0.8 µM): 0.75
relative viability (NCI-H1755; first compound 2.53 µM): 0.841
relative viability (NCI-H1755; first compound 8 µM): 0.723
relative viability (H3255; first compound 0.08 µM): 0.601
relative viability (H3255; first compound 0.8 µM): 0.764
relative viability (H3255; first compound 2.53 µM): 0.717
relative viability (H3255; first compound 8 µM): 0.647
relative viability (PC-3 [JPC-3]; first compound 0.08 µM): 0.684
relative viability (PC-3 [JPC-3]; first compound 0.8 µM): 0.75
relative viability (PC-3 [JPC-3]; first compound 2.53 µM): 0.788
relative viability (PC-3 [JPC-3]; first compound 8 µM): 0.614
relative viability (NCI-H1975; first compound 0.08 µM): 0.38
relative viability (NCI-H1975; first compound 0.8 µM): 0.379
relative viability (NCI-H1975; first compound 2.53 µM): 0.376
relative viability (NCI-H1975; first compound 8 µM): 0.369
relative viability (NCI-H1437; first compound 0.08 µM): 0.531
relative viability (NCI-H1437; first compound 0.8 µM): 0.607
relative viability (NCI-H1437; first compound 2.53 µM): 0.648
relative viability (NCI-H1437; first compound 8 µM): 0.505
relative viability (NCI-H650; first compound 0.08 µM): 0.977
relative viability (NCI-H650; first compound 0.8 µM): 1.47
relative viability (NCI-H650; first compound 2.53 µM): 1.02
relative viability (NCI-H650; first compound 8 µM): 0.987
relative viability (NCI-H1793; first compound 0.08 µM): 0.398
relative viability (NCI-H1793; first compound 0.8 µM): 0.446
relative viability (NCI-H1793; first compound 2.53 µM): 0.511
relative viability (NCI-H1793; first compound 8 µM): 0.419
relative viability (NCI-H596; first compound 0.08 µM): 0.832
relative viability (NCI-H596; first compound 0.8 µM): 0.796
relative viability (NCI-H596; first compound 2.53 µM): 0.795
relative viability (NCI-H596; first compound 8 µM): 0.748
relative viability (HCC-15; first compound 0.08 µM): 0.366
relative viability (HCC-15; first compound 0.8 µM): 0.435
relative viability (HCC-15; first compound 2.53 µM): 0.345
relative viability (HCC-15; first compound 8 µM): 0.383
relative viability (NCI-H441; first compound 0.08 µM): 0.399
relative viability (NCI-H441; first compound 0.8 µM): 0.584
relative viability (NCI-H441; first compound 2.53 µM): 0.552
relative viability (NCI-H441; first compound 8 µM): 0.465
relative viability (NCI-H2405; first compound 0.08 µM): 0.664
relative viability (NCI-H2405; first compound 0.8 µM): 0.778
relative viability (NCI-H2405; first compound 2.53 µM): 0.638
relative viability (NCI-H2405; first compound 8 µM): 0.626

— the supplement of paper PMC10307832
